Data from paper PMC11763059, “GENI as an AMPK Activator Binds α and γ Subunits and Improves the Memory Dysfunction of Alzheimer’s Disease Mouse Models via Autophagy and Neuroprotection” (Antioxidants, 2025).

Key:
AMPK = assay: Drug affinity responsive target stability (DARTS), AMPK; format: binding; details: 0.1–100 μM GENI, protein: pronase 50:1
Experimental: Cells were lysed by RIPA lysis buffer, and the protein concentration was measured. The lysate was divided into six groups. Before incubation with protease (protein: pronase = 50:1 w/w for PI3K and AMPK detection, 5:1 for MAPK detection, 100:1 for p53 detection) for 25 min in 25 °C, 0.1–100 μM GENI was added to lysates and incubated for 2 h at room temperature. The samples were mixed with loading buffer and then separated on 8% SDS-PAGE for immunoblotting analysis.

PC12 cells = assay: ROS assay (DCFH-DA) in PC12 cells; format: cell-based; details: GENI 1, 3 and 10 μM 24 h, 0.8 mM H2O2 1 h
Experimental: To determine ROS levels in PC12 cells, we seeded 5 × 10^4 PC12 cells in each well of a 24-well plate. Cells were treated with RES (10 μM) or GENI (1, 3, and 10 μM) for 24 h, followed by 0.8 mM H2O2 for 1 h. DCFH-DA (2,7-dichlorodihydrofluorescein diacetate, final concentration, 10 μM) was then added to each well and incubated for 30 min. Cells were washed with PBS to remove extracellular DCFH-DA, and intercellular ROS was detected by using a SpectraMax M3 multimode microplate reader (Molecular Devices Corporation, San Jose, CA, USA) at an excitation wavelength of 488 nm and an emission wavelength of 525 nm. Meanwhile, DCF in PC12 cells was observed using a fluorescence microscope (HCS, Thermo Fisher, Science, Waltham, MA, USA). To detect malondialdehyde (MDA) content and total SOD enzymatic activities in PC12 cells, we seeded 2 × 10^6 PC12 cells in 60 mm dishes containing 5 mL of DMEM and cultured the cells for 24 h. PC12 cells were treated with RES (10 μM) or GENI (3 or 10 μM) for 24 h and then treated with 0.8 mM H2O2 for 1 h to determine the MDA content and total superoxide dismutase (SOD) activities. Cells were lysed and centrifuged. […] MDA quantification and total SOD activities were determined using MDA and SOD enzyme activity assay kits (Nanjing Jiancheng Bioengineering Institute, Nanjing, China) following the manufacturer’s instructions.

In the case of CC(C)CCOC(=O)C1=CO[C@@H](O[C@@H]2O[C@H](CO)[C@@H](O)[C@H](O)[C@H]2O)C2C(CO)=CCC12 (some centres unmarked) [GENI, Geniposidic 4-isoamyl ester], the “stability of AMPK against pronase (DARTS)” value (AMPK) is reported as “dramatically enhanced the stability” and the “H2O2-induced increase in ROS” value (PC12 cells) is reported as “significantly reduce”.
